US5459049A, “Motilin-like polypeptide and use thereof” (priority 1989, dated 1995)

Biological target: upper small intestine of rabbit (Oryctolagus cuniculus, UniProt G1T803)
Conditions: from ED50, contraction activity of native motilin taken as 100%
Description: An intestinal contraction activity was measured by Magnus method using upper small intestine of rabbit ["J. Pharm. Pharmac.", Vol. 28, pages 650-651 (1976)], on each motilin-like polypeptides (Example 1, wherein R1 is Hse, Asp-Gly-Ile-Phe-Hse, or Arg-Ile-Phe-Hse) according to the invention, as test samples and a conventional pure [Leu^13 ]-motilin, as control sample. The activities of the test samples and control sample were compared, under assumption of that an contraction activity caused by 10^-6 M acetylcholine is 100%.

Chain of upper small intestine of rabbit (G1T803 1-400): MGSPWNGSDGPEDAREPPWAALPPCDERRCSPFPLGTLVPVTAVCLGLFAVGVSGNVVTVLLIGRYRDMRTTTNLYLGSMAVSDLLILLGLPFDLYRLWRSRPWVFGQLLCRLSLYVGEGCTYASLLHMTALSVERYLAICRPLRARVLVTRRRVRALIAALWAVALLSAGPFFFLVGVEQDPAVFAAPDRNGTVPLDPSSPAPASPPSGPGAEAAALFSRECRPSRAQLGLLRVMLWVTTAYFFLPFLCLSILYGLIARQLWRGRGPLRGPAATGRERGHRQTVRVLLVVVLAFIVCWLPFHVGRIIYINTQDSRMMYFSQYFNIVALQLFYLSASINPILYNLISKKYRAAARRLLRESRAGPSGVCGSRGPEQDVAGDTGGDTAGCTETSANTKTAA

With CC[C@H](C)[C@H](NC(=O)[C@@H]1CCCN1C(=O)[C@@H](NC(=O)[C@@H](N)Cc1ccccc1)C(C)C)C(=O)N[C@@H](Cc1ccccc1)C(=O)N[C@H](C(=O)N[C@@H](Cc1ccc(O)cc1)C(=O)NCC(=O)N[C@@H](CCC(=O)O)C(=O)N[C@@H](CC(C)C)C(=O)N[C@@H](CCC(N)=O)C(=O)N[C@@H](CCCNC(=N)N)C(=O)N[C@@H](CCSC)C(=O)N[C@@H](CCC(N)=O)C(=O)N[C@@H](CCC(=O)O)C(=O)N[C@@H](CCCCN)C(=O)N[C@@H](CCC(=O)O)C(=O)N[C@@H](CCCNC(=N)N)C(=O)N[C@@H](CC(N)=O)C(=O)N[C@@H](CCCCN)C(=O)NCC(=O)N[C@@H](CCC(N)=O)C(=O)O)[C@@H](C)O [native motilin] the “Activity in vitro (%)” value was 100%.
